Laboratory results as given in ChEMBL document CHEMBL4011637, “Synthesis of 8-Substituted Analogues of Cyclic ADP-4-Thioribose and Their Unexpected Identification as Ca2+-Mobilizing Full Agonists” (J Med Chem, 2017).
Activity calls are given as the source filed them. No cut-off for these calls is given here.

Assays:
[1] = Dissociation constant, pKa of the compound; type: physicochemical
[2] = target: Ryanodine receptor (Hemicentrotus pulcherrimus) (UniProt Q8TA74); assay: (§1) Agonist activity at ryanodine receptor in Hemicentrotus pulcherrimus egg homogenate assessed as increase in intracellular calcium mobilization by Fluo-3 dye based fluorimetric assay; type: cell-based
Ryanodine receptor = Ryanodine receptor (Hemicentrotus pulcherrimus, UniProt Q8TA74); assay: as §1; type: cell-based
Homo sapiens [3] = species: Homo sapiens; assay: Agonist activity at ryanodine receptor (unknown origin) in T cells assessed as increase in intracellular calcium mobilization by Fluo-3 dye based fluorimetric assay; type: cell-based
[4] = target: Ryanodine receptor (Hemicentrotus pulcherrimus) (UniProt Q8TA74); assay: Antagonist activity at ryanodine receptor in Hemicentrotus pulcherrimus egg homogenate assessed as decrease in intracellular calcium mobilization by Fluo-3 dye based fluorimetric assay; type: cell-based
Homo sapiens [5] = species: Homo sapiens; assay: Agonist activity at ryanodine receptor (unknown origin) in neuronal cells assessed as increase in intracellular calcium mobilization by Fluo-3 dye based fluorimetric assay; type: cell-based

SMILES	pKa [1]	Activity [2]	EC50 (Ryanodine receptor) [nM]	Activity (Homo sapiens [3])	inhibition [4]	Activity (Homo sapiens [5])
Nc1c2ncn3c2nc[n+]1[C@@H]1O[C@H](COP(=O)([O-])OP(=O)(O)OC[C@H]2O[C@@H]3[C@H](O)[C@@H]2O)[C@@H](O)[C@H]1O	8.3	Dose-dependent effect	210	Active		
Nc1nc2c(N)[n+]3cnc2n1[C@@H]1O[C@H](COP(=O)(O)OP(=O)([O-])OC[C@H]2S[C@@H]3[C@H](O)[C@@H]2O)[C@@H](O)[C@H]1O			870		inactive	
Nc1c2ncn3c2nc[n+]1[C@@H]1C[C@H](COP(=O)([O-])OP(=O)(O)OC[C@H]2O[C@@H]3[C@H](O)[C@@H]2O)[C@@H](O)[C@H]1O	9			inactive		Active
Nc1c2nc(Cl)n3c2nc[n+]1[C@@H]1S[C@H](COP(=O)([O-])OP(=O)(O)OC[C@H]2O[C@@H]3[C@H](O)[C@@H]2O)[C@@H](O)[C@H]1O			12000		inactive	
[N-]=[N+]=Nc1nc2c(N)[n+]3cnc2n1[C@@H]1O[C@H](COP(=O)(O)OP(=O)([O-])OC[C@H]2C[C@@H]3[C@H](O)[C@@H]2O)[C@@H](O)[C@H]1O		Active				
Nc1c2nc(Cl)n3c2nc[n+]1[C@@H]1C[C@H](COP(=O)(O)OP(=O)([O-])OC[C@H]2O[C@@H]3[C@H](O)[C@@H]2O)[C@@H](O)[C@H]1O		Active				
[N-]=[N+]=Nc1nc2c(N)[n+]3cnc2n1[C@@H]1O[C@H](COP(=O)(O)OP(=O)([O-])OC[C@H]2S[C@@H]3[C@H](O)[C@@H]2O)[C@@H](O)[C@H]1O			37000			
Nc1c2ncn3c2nc[n+]1[C@@H]1S[C@H](COP(=O)([O-])OP(=O)(O)OC[C@H]2O[C@@H]3[C@H](O)[C@@H]2O)[C@@H](O)[C@H]1O	8		39	Active		Active
Nc1nc2c(N)[n+]3cnc2n1[C@@H]1O[C@H](COP(=O)([O-])OP(=O)(O)OC[C@H]2C[C@@H]3[C@H](O)[C@@H]2O)[C@@H](O)[C@H]1O		Active				
